Calls of active or inactive are those of the source. The calls are words filed in the database; no cut-off is given here.
Key:
NIH-H = assay: Inhibition of inhibit anchorage-independent growth of […] NIH-H cells in soft agar by colony forming assay; type: functional, cell-based
[1] = molecular target: Protein farnesyltransferase (Homo sapiens, UniProt P49354+P49356); assay: Inhibition of FTase (unknown origin) assessed as transfer of [H3]farnesyl from [H3]farnesyl pyrophosphate to trichloroacetic acid-precipitable HaRas-CVLS; type: protein-complex assay
[2] = Ratio of IC50 for […] NIH-H cells to IC50 for FTase (unknown origin)
[3] = AUC (0 to 6 hrs) in rat at 10 mg/kg; type: ADME, organism-based; parameters: time < 6 hr, dose 10 mg/kg; settings: plasma
Mus musculus [4] = assay: Antitumor activity in wap-ras transgenic mouse assessed as tumor growth inhibition and tumor regression administered bid for 4 weeks; type: functional, organism-based
Cytochrome P450 3A4 = Cytochrome P450 3A4 (Homo sapiens, UniProt P08684); assay: Inhibition of CYP3A4 (unknown origin); type: ADME
Mus musculus [5] = assay: Toxicity in wap-ras transgenic mouse assessed as change in body weight at 3 to 40 mg/kg bid for 4 weeks; type: organism-based; parameters: dose 3-40 mg/kg; settings: in vivo, 672 h
Mus musculus [6] = assay: Antitumor activity in wap-ras transgenic mouse assessed as tumor regression at 25 to 40 mg/kg bid for 4 weeks; type: functional, organism-based
Mus musculus [7] = assay: Antitumor activity in wap-ras transgenic mouse assessed as tumor stasis at 10 mg/kg bid for 4 weeks; type: functional, organism-based; parameters: dose 10 mg/kg
[8] = Cmax in monkey at 25 mg/kg, po; type: ADME, organism-based, Macaca mulatta; parameters: dose 25 mg/kg, route oral; settings: rhesus monkey, in vivo
Mus musculus [9] = assay: Antitumor activity in wap-ras transgenic mouse assessed as tumor growth inhibition at 3 mg/kg bid for 4 weeks; type: functional, organism-based; parameters: dose 3 mg/kg
[10] = AUC in monkey at 25 mg/kg, po; type: ADME, organism-based, Macaca mulatta; parameters: dose 25 mg/kg, route oral; settings: rhesus monkey, plasma
[11] = AUC in dog at 25 mg/kg, po; type: ADME, organism-based, Canis lupus familiaris; parameters: dose 25 mg/kg, route oral; settings: plasma
[12] = Cmax in dog at 25 mg/kg, po; type: ADME, organism-based, Canis lupus familiaris; parameters: dose 25 mg/kg, route oral; settings: in vivo
[13] = Cmax in mouse at 25 mg/kg, po; type: ADME, organism-based; parameters: dose 25 mg/kg, route oral; settings: in vivo
[14] = AUC in mouse at 25 mg/kg, po; type: ADME, organism-based; parameters: dose 25 mg/kg, route oral; settings: plasma
[15] = Cmax in rat at 10 mg/kg, po; type: ADME, organism-based; parameters: dose 10 mg/kg, route oral; settings: in vivo
[16] = AUC in rat at 10 mg/kg, po; type: ADME, organism-based; parameters: dose 10 mg/kg, route oral; settings: plasma
[17] = Oral bioavailability in monkey at 5 mg/kg; type: ADME, organism-based, Macaca mulatta; settings: rhesus monkey, in vivo
[18] = Oral bioavailability in dog at 5 mg/kg; type: ADME, organism-based, Canis lupus familiaris; settings: in vivo
[19] = Oral bioavailability in mouse at 25 mg/kg; type: ADME, organism-based; settings: in vivo
[20] = Oral bioavailability in rat at 10 mg/kg; type: ADME, organism-based; settings: in vivo

Sequence of Cytochrome P450 3A4 (P08684 whole entry): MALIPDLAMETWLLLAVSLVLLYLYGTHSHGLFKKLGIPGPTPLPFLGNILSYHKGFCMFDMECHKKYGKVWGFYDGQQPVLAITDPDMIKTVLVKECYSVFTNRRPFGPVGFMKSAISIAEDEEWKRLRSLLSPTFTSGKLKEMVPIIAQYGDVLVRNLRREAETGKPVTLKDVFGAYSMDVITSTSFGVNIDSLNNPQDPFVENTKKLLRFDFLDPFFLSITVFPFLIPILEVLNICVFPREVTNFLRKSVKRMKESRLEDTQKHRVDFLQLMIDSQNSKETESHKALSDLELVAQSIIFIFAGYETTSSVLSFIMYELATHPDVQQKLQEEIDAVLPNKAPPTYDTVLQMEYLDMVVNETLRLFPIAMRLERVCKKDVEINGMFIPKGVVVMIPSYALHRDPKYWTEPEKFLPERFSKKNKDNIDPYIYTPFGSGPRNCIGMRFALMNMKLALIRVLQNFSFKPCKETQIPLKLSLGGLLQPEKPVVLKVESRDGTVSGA

SMILES	IC50 [1] [nM]	IC50 (NIH-H) [nM]	further results
Cn1cncc1C(C)(O)C1=Cc2cccnc2[C@@H](N2CCN(C(=O)OC(C)(C)C)CC2)c2ccc(Cl)cc21 (mixture of isomers)	1.8	10	
Cn1cncc1[C@](C)(O)C1=Cc2cccnc2[C@@H](N2CCN(C(N)=O)CC2)c2ccc(Cl)cc21	> 20	> 100	
Cn1cncc1C(=O)C1=Cc2cccnc2[C@@H](N2CCN(C(=O)OC(C)(C)C)CC2)c2ccc(Cl)cc21	> 18		
Cn1cncc1C(=O)[C@]12C[C@H]1c1cccnc1[C@@H](N1CCN(C(=O)OC(C)(C)C)CC1)c1ccc(Cl)cc12	3.2	6	
Cn1cncc1C(C)(O)[C@@]12C[C@@H]1c1cccnc1[C@@H](N1CCN(C(=O)OC(C)(C)C)CC1)c1ccc(Cl)cc12 (stereo partly specified)	1.9	60	Ratio IC50 [2]: >30
Cn1cncc1[C@](C)(O)C1=Cc2cccnc2[C@@H](N2CCN(C(=O)Nc3ccc(C#N)cc3)CC2)c2ccc(Cl)cc21	1.8	4	
Cn1cncc1[C@@](C)(O)C1=Cc2cccnc2[C@@H](N2CCN(C(=O)OC3(C)CCCCC3)CC2)c2ccc(Cl)cc21	5.5	2	
CCC(O)(C1=Cc2cccnc2[C@@H](N2CCN(C(=O)OC(C)(C)C)CC2)c2ccc(Cl)cc21)c1cncn1C (mixture of isomers)	5	50	
Cn1cncc1[C@](C)(O)C1=Cc2cccnc2[C@@H](N2CCN(C(=O)OC3(C)CCCCC3)CC2)c2ccc(Cl)cc21		45	
Cn1cncc1[C@](C)(O)C1=Cc2cccnc2[C@@H](N2CCN(C(=O)OC(C)(C)C)CC2)c2ccc(Cl)cc21	2.6	30	AUC(0-t) at 6 h [3]: 3.1 µM·h
Cn1cncc1[C@@H](O)C1=Cc2cccnc2[C@@H](N2CCN(C(=O)OC(C)(C)C)CC2)c2ccc(Cl)cc21	12		
Cn1cncc1C(=O)[C@@]12C[C@@H]1c1cccnc1[C@@H](N1CCN(C(=O)OC(C)(C)C)CC1)c1ccc(Cl)cc12	3.2	8	
Cn1cncc1C(C)(O)[C@]12C[C@H]1c1cccnc1[C@@H](N1CCN(C(=O)OC(C)(C)C)CC1)c1ccc(Cl)cc12 (stereo partly specified)	> 18	> 100	

More lines, main results first:

IC50 [1] [nM]	SMILES	IC50 (NIH-H) [nM]	further results
0.6	CC(C)OC(=O)N1CCN([C@H]2c3ccc(Cl)cc3C([C@@](C)(O)c3cncn3C)=Cc3cccnc32)CC1	10	
1.4	Cn1cncc1[C@](C)(O)C1=Cc2cccnc2[C@@H](N2CCN(C(=O)OC3CCCCC3)CC2)c2ccc(Cl)cc21	6.2	
0.8	Cn1cncc1[C@@](C)(O)C1=Cc2cccnc2[C@@H](N2CCN(C(=O)Nc3ccc(C#N)cc3)CC2)c2ccc(Cl)cc21	2	
0.6	Cn1cncc1[C@](C)(O)C1=Cc2cccnc2[C@@H](N2CCN(C(=O)OC3CCCC3)CC2)c2ccc(Cl)cc21	32	
0.4	Cn1cncc1[C@](C)(O)C1=Cc2cccnc2[C@@H](N2CCN(C(=O)NC3CCCCC3)CC2)c2ccc(Cl)cc21	1.7	
0.7	Cn1cncc1[C@](C)(O)C1=Cc2cccnc2[C@@H](N2CCN(C(=O)NC(C)(C)C)CC2)c2ccc(Cl)cc21	37	
1.7	Cn1cncc1[C@@](C)(O)C1=Cc2cccnc2[C@@H](N2CCN(C(=O)OC3CCCCC3)CC2)c2ccc(Cl)cc21	3.5	
0.6	Cn1cncc1[C@@](C)(O)C1=Cc2cccnc2[C@@H](N2CCN(C(=O)OC3CCCC3)CC2)c2ccc(Cl)cc21	2	
0.3	Cn1cncc1[C@H](O)C1=Cc2cccnc2[C@@H](N2CCN(C(=O)OC(C)(C)C)CC2)c2ccc(Cl)cc21	0.5	
0.9	Cn1cncc1[C@@](C)(O)C1=Cc2cccnc2[C@@H](N2CCN(C(=O)NC(C)(C)C)CC2)c2ccc(Cl)cc21	5	
0.2	CC(C)OC(=O)N1CCN([C@H]2c3ccc(Cl)cc3C([C@](C)(O)c3cncn3C)=Cc3cccnc32)CC1	2	
0.1	Cn1cncc1[C@@](C)(O)C1=Cc2cccnc2[C@@H](N2CCN(C(=O)NC3CCCCC3)CC2)c2ccc(Cl)cc21	0.9	
1.4	Cn1cncc1[C@@](C)(O)C1=Cc2cccnc2[C@@H](N2CCN(C(=O)OC(C)(C)C)CC2)c2ccc(Cl)cc21	1.3	Activity (Mus musculus [4]): Dose-dependent effect; IC50 (Cytochrome P450 3A4): 300 nM; Activity (Mus musculus [5]): Non-toxic; Activity (Mus musculus [6]): Active; Activity (Mus musculus [7]): Active; Cmax [8]: 700 nM; TGI (Mus musculus [9]): Active; AUC [10]: 3.2 µM·h; AUC [11]: 1.8 µM·h; Cmax [12]: 600 nM; Cmax [13]: 18000 nM; AUC [14]: 82 µM·h; Cmax [15]: 1500 nM; AUC [16]: 8.4 µM·h; bioavailability [17]: 34%; bioavailability [18]: 34%; bioavailability [19]: 34%; bioavailability [20]: 34%
0.1	Cn1cncc1[C@@](C)(O)C1=Cc2cccnc2[C@@H](N2CCN(C(N)=O)CC2)c2ccc(Cl)cc21	> 100	

From ChEMBL document CHEMBL3112503, “New class of azaheptapyridine FPT inhibitors as potential cancer therapy agents” (Bioorg Med Chem Lett, 2014)
